The target of assay [1] is T1, Sa.ClpP (Staphylococcus aureus, UniProt Q2G036).
T1 construct: Strep-tag (C); made in house; host or cells: E. coli SG1146a (lacks endogenous ClpP)
Description: Dose-response of beta-casein degradation by Sa.ClpP. Conditions: two-fold dilution series in DMSO, highest concentration 200 µM, densitometry, non-linear fit; three independent experiments; Fig. 4B; read-out: EC50 (effective dose), Sa.ClpP-dependent digestion of beta-casein. It is filed as biochemical, S. aureus. As for the experimental part:
(§1) Beta-casein degradation by Ec.ClpP or Sa.ClpP
(§2) All concentrations are given as final concentrations. Ligands were incubated at 200 µM in […]
(§3) Aliquots were drawn at the
(§4) Gels were run at constant voltage […]
(§5) concentration was 200 µM. The results from densitometric analysis were plotted in Graphpad […]
(§6) Data is represented as mean ± SD of three independent experiments. […]

Assay [2] is described as follows: FITC-casein fluorescence with/without Ec.ClpP (false-positive control). To be noted: 200 µM, with vs without Ec.ClpP, 24 h at 37 °C, Fig. S2. As for the experimental part: (§7) Walther et al. Supporting Information
Protein purification and isolation […]
expressed in E. coli C41 (DE3) cells. A single colony was incubated overnight in 2xYT media containing ampicillin (0.1 mg/mL) at 37 °C. Subsequently 10 mL of the overnight inoculum was […]
applied to a Ni-NTA affinity column (GE Healthcare). The column was washed with an increasing […]
Protein containing fraction
10 mM MgCl2, glycerol 10 % (v/v)). The pure protein sample was obtained after size exclusion […]
0.5 mM EDTA, 100 mM KCl, 10 % glycerol).
After 18 hours of growth at 25 °C, cells […]
mM Tris-HCl, 1 mM EDTA, pH 8).
Here, the protein was eluted with an isocratic gradient of buffer containing 50 mM biotin. Protein was concentrated and buffer […]
stocks were stored in storage buffer at -20 °C. For long term storage, samples were stored at -80 […]
FITC casein degradation screen
(§8) All concentrations are given as final concentrations. Ligands were incubated at 200 µM in the […]
samples is subtracted from all samples.

The target of assay [3] is T1, Sa.ClpP. Description: Thermal shift assay (differential scanning fluorimetry). Format: binding. Conditions: S. aureus ClpP 5 µM, ligand 200 µM, HEPES 100 mM pH 7, NaCl 150 mM, sypro orange 5x, 30-90 °C in 0.5 °C increments; mean ± SD of duplicates of at least two independent experiments. From the text: All concentrations are given as final concentrations. […]
real-time qPCR (Bio-Rad CF X96).
SD of duplicates of at least two independent experiments.
equilibrated Superdex 200 Increase 10/300 GL column (Cytiva). […]
For orientation: Differential scanning fluorimetry follows unfolding on heating by fluorescence.

In assay [4] the test system is Ec.ClpP. To be noted: 200 µM ligand, ClpP 1.0 µM, 24 h at 37 °C, SDS-PAGE densitometry, at least three independent experiments, Fig. 3D.
Description: presence of E. coli ClpP or S. aureus ClpP (1.0 µM), and bovine beta-casein (Sigma-Aldrich –
catalogue number C6905, 5.0 µM or 3 µM) in Tris HCl buffer (100 mM, pH 7.6) with KCl (100 mM)
or HEPES buffer (100 mM, pH 7) with NaCl (150 mM) at 37 °C. Aliquots were drawn at the
indicated time points, quenched with SDS-loading buffer and heated to 90 °C for 5 min. Beta-
casein digestion was visualized by non-reducing Tris-glycine SDS-PAGE with 12 % acrylamide
and 4 % stacking gel or reducing Bolt 4-12% Bis-Tris Plus gels. Gels were run at constant voltage
(160-200 V) for 60 min and visualized with Coomassie brilliant blue dye. Protein bands were
quantified by densitometry using ImageJ from at least three independent experiments.
A two-fold dilution series in DMSO was performed to keep DMSO content identical. Highest
Prism and a non-linear fit was applied to estimate the EC50. Data is represented as mean ± SD of three independent experiments.
Assay [5] concerns the target T1, Sa.ClpP. Description: beta-casein degradation by Sa.ClpP, SDS-PAGE. It is filed as biochemical, S. aureus. Conditions: ligands at 200 µM, ADEP2 at 10 µM, ClpP 1.0 µM, 24 h at 37 °C, Fig. 4A. As to the method: as §1, §2, §3, §4, §5, §6
Assay [6] relates to Ec.ClpP. Conditions: 200 µM peptide, E. coli ClpP 0.5 µM, FITC-casein 1.8 µM + beta-bovine casein 4.8 µM, Tris HCl 100 mM pH 7.6, KCl 100 mM, 24 h at 37 °C, exc. 483 nm, em 530 nm; duplicates of at least two independent experiments; vs DMSO.
Description: Next, we screened for enzymatic activation of ClpP to quickly assess the chemical library for binding and understand whether IGF-bearing macrocyclic peptides could modulate ClpP enzymatic function. Modulation of ClpP was assessed using a biochemical assay monitoring the enzymatic function of the protease based on previously reported successes for the identification of allosteric activators of ClpP.[9] […] FITC-casein, a protein labeled with fluorescein to the extent of self-quenching, is a suitable substrate for this assay, as it can only enter the proteolytic core upon apical pore opening and is indirectly a measure for the conformational state of the protease.[2,10] Enzymatic degradation of FITC-casein alleviates self-quenching giving rise to an increased fluorescence intensity and an easy readout for our purpose to identify any ligand that positively modulates the enzymatic activity of recombinant E. coli ClpP (Ec.ClpP).
Ec.ClpP was incubated for 24 h at 37 °C in the presence of a peptide library, or vehicle (DMSO) and fluorescence intensity was measured thereafter (Fig. 2C and S1 ^†). […] This was reproducibly confirmed in three independent experiments (varying the batch of enzyme).
The target of assay [7] is T1, Sa.ClpP. Kind of assay: FtsZ degradation by Sa.ClpP, SDS-PAGE. To be noted: 200 µM, ADEP2 at 10 µM, Sa. FtsZ 4.0 µM, 24 h, SDS-PAGE densitometry, at least three independent experiments, Fig. 4D. It is filed as biochemical, S. aureus.
Source text: Lastly, we set out to answer to what extent ADEP and other allosteric activators of ClpP resemble the activation process of ClpX. To this end, we set up a biochemical assay and monitored the digestion of FtsZ, an essential protein for cell division, which is the major determinant for the filamentation phenotype induced by ADEP-activated ClpP.[17] […] We performed docking studies of the identified macrocycles into the same pocket where ADEP binds (see ESI ^† for full details).
as §7
FITC casein degradation rate
as §8
The linear part of the fluorescence curve was used to determine the relative degradation rate. Data analysis was performed by OriginPro […]
as §1, §2, §3, §4, §5
Data is represented as mean ± SD of three independent experiments.
FtsZ degradation by Sa.ClpP […]
at a final concentration of 4.0 µM. […]
casein degradation assay. […]
SD of duplicates of at least two independent experiments. […]
equilibrated Superdex 200 Increase 10/300 GL column (Cytiva). Stabilization of Sa.ClpP in […]

The subject of a further assay is ClpP. Conditions: in words, through another mechanism; cited from earlier work.
For assay [8], the target named is T1, Sa.ClpP. Description: Gel filtration (SEC) of ClpP oligomeric state. On the set-up: species or system S. aureus. To be noted: Sa.ClpP 1 mg/mL, ligand 200 µM, destabilizing buffer Tris-HCl 100 mM pH 7.6, 100 mM KCl, overnight at 32 °C; Superdex 200.

pEC50: −log10 of the molar value. “Also recorded” adds a separate entry of the source. Bounds are passed on as bounds.

The source of these data is PMC10285738, “Identification of macrocyclic peptides which activate bacterial cylindrical proteases” (RSC Medicinal Chemistry, 2023).

In general, pEC50 refers to −log10 of the EC50, conventionally taken in molar units.

T1 sequence (Q2G036 whole entry): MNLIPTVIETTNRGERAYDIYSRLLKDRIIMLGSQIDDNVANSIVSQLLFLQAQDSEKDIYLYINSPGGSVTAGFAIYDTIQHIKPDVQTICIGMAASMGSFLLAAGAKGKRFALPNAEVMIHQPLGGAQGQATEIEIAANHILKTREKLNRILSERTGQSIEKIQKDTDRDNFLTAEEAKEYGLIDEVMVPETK

In the case of `CC[C@H](C)[C@@H]1NC(=O)CNC(=O)[C@@H](NC(C)=O)CSCC(=O)CSC[C@@H](C(N)=O)NC(=O)CNC(=O)[C@H](Cc2ccccc2)NC(=O)CNC1=O` [P4-B], at Sa.ClpP [1], the pEC50 was < 4.00. Moreover, in assay [2], the “fluorescence signal in presence or absence of Ec.ClpP (false-positive check)” value is on record as “did not exhibit this behaviour”. For the same molecule, the “apparent increase in melting temperature of Sa.ClpP” value at Sa.ClpP [3] stood at 0.6 ± 0.2 °C. For the same molecule, the Ec.ClpP-dependent beta-casein digestion result in the assay on Ec.ClpP [4] is “control of Ec.ClpP function was confirmed by SDS-PAGE analysis of beta-casein digestion”. Besides, at Sa.ClpP [5], the “activation of Sa.ClpP (beta-casein digestion)” value is “able to activate the enzymatic function of Sa.ClpP”. The “increase in fluorescence intensity / enzymatic activation of Ec.ClpP (FITC-casein)” value in the assay on Ec.ClpP [6] is on record as “significant increase of fluorescence intensity over the DMSO-treated sample”. Also, the “Sa.ClpP-dependent Sa.FtsZ digestion” value on Sa.ClpP [7] is “also induced the digestion of FtsZ, yet less efficiently”.
Regarding `CC(C)C[C@H](NC(=O)[C@H](Cc1ccccc1)NC(=O)c1cnccn1)B(O)O` [bortezomib], the “effect on enzymatic function of ClpP homologues” value in the assay on ClpP is “able to increase enzymatic function of ClpP homologues”.
Regarding `CCCC/C=C/C(=O)N[C@@H](Cc1cc(F)cc(F)c1)C(=O)OC` [compound 2, reference compound], on Sa.ClpP [8], the “stabilization/retention of tetradecameric Sa.ClpP” value is “able to retain the tetradecamer in Tris-HCl; also recorded: able to rescue and stabilize the tetradecameric structure of Sa.ClpP”. For the same molecule, the “Sa.ClpP-dependent Sa.FtsZ digestion” value at Sa.ClpP [7] was “activated Sa.ClpP, and FtsZ was digested”.
